The text below walks through data of paper PMC12186339, “Assessment of the structure–activity relationship of analogs of the Naegleria fowleri enolase inhibitor HEX” (RSC Medicinal Chemistry, 2025).

Data set [1] has as its system N. fowleri strain TY (ATCC 30107) trophozoites. Put plainly: In vitro growth inhibition of N. fowleri trophozoites (CellTiter-Glo). Particulars: for EC50: Naegleria fowleri, read-out: N. fowleri EC50. The data set is classed as cell-based, Naegleria fowleri. The protocol: N. fowleri strain TY (ATCC 30107) trophozoites were routinely cultured in T-75 TC-treated flasks at 37 °C and 5% CO2 in media that has been previously described.[10] All compounds described were reconstituted in DMSO for testing, with final concentrations kept at <1% in the assays. To test the inhibitory activity of the compounds on cell growth, 1 × 10^4 cells per mL were seeded in white 96-well plates with 100 μM compound. Cells and compound were incubated at 37 °C and 5% CO2 for 48 hours. CellTiter-Glo reagent (Promega G7570) was then added to each well and luminescence was read using a BioTek Synergy H1 Microplate Reader. […] All reactions were performed in technical triplicate. If growth inhibition was <50% at the concentration tested, EC50 was reported to be above that value.
For orientation: Cellular ATP, detected with luciferase, serves as a proxy for viable cell number.

Data set [2] is described as follows: Human cell growth inhibition (CellTiter Blue). The class given is cell-based. Particulars: HEK-293, 48 hours, read-out: Human cell line CC50. The protocol:
To determine the amount of agent required to inhibit human cell growth 50% (the CC50 value), human embryonic kidney cells (ATCC HEK-293) were seeded at 5 × 10^4 cells per well in 100 μL of Dulbecco's modified Eagle's medium in tissue culture-treated clear bottom black 96 well plates (Gibco). Cells were incubated with compounds for 48 hours, followed by addition of CellTiter Blue (Promega, Madison, WI, USA) After a 3 hour incubation and equilibration for 15 minutes at room temperature, fluorescence (Ex: 560 nm, EM: 590 nm) was measured and the percentage of growth inhibition was calculated using untreated controls.
On the technique in general: Alamar Blue is a resazurin reagent that responds to reducing activity.

A further data set addresses NfENO (Naegleria fowleri, UniProt A0A6A5BXC3). Put plainly: NfENO pyruvate kinase/lactate dehydrogenase-coupled activity assay. Particulars: at 100 μM. The class given is biochemical. The procedure: Using the full-length protein (NF0118810, AmoebaDB, https://amoebadb.org/amoeba/app/), an E. coli codon-optimized construct was designed to express a truncated version of NfENO (residues 44–512) to improve solubility.[10]NfENO was heterologously expressed in BL2(DE3)R3 Rosetta cells and expression induced with 0.5 mM isopropyl-β-D-1-thiogalactopyranoside (IPTG) overnight at 37 °C. Cells were lysed using a lysozyme and 10% Triton X-100 based lysis buffer and purified with Ni-NTA agarose beads (Qiagen). Activity assays were conducted in triplicate using a pyruvate kinase/lactate dehydrogenase-coupled assay. Approximately 75 nM of NfENO in assay buffer (100 mM HEPES, pH 8.5, 3.3 mM MgSO4, 120 mM KCl, 1.75 mM ADP, 1 U pyruvate kinase/lactate dehydrogenase, and 0.4 mM NADH) was added to black 96-well plates. For assays in the presence of inhibitor, compounds were resuspended in DMSO, added to the wells, and incubated with enzyme in assay buffer for 15 minutes at room temperature. DMSO was included as a vehicle control. Assays were initiated by addition of substrate solution (3.75 mM 2-PG) and fluorescence emission at 460 nm after excitation at 360 nm was monitored every 20 seconds for 4 minutes using a Biotek Synergy H1 microplate reader. The rate of fluorescence reduction was measured to monitor the conversion of NADH to NAD+. […]

Setting [3] is: ATCC30107, trophozoites, 48 hours.

SMILES strings stand for the structures. Where two headings read alike, the source gives them in different places.

NfENO, sequence (A0A6A5BXC3 entry or part of it): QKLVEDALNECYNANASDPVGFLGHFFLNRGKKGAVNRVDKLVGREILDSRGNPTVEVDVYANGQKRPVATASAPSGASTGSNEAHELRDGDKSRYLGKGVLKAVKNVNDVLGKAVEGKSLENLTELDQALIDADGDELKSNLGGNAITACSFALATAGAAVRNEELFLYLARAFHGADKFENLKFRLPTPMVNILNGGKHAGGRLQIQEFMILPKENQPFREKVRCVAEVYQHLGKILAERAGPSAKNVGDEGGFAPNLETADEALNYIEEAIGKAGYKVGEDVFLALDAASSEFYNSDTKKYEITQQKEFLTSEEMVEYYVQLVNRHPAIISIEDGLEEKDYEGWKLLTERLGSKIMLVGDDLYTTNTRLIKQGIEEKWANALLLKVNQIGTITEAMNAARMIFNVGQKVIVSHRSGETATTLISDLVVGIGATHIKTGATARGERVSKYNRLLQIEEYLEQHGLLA

Take `O=C1C(P(=O)(O)O)CCCN1O` (stereo not shown) [HEX, (1-hydroxy-2-oxopiperidin-3-yl)phosphonic acid, reference compound]: the EC50 in data set [1] (ATCC30107, 48 h) came out at 0.21 ± 0.02 µM. Also, in data set [2], the CC50 at 48 h was above 100 µM.
In the case of `NN1CCCC(P(=O)(O)O)C1=O` (stereo not shown) [Compound 1, (1-Amino-2-oxopiperidin-3-yl)phosphonic acid], the EC50 in data set [1] (ATCC30107, 48 h) was above 25 µM.
On to `O=C1[C@@H](P(=O)(O)O)[C@@H]2CCCC[C@H]2CN1O` [Compound 5, ((4S,4aR,8aR)-2-Hydroxy-3-oxodecahydroisoquinolin-4-yl)phosphonic acid], for which, in data set [1] (setting [3]), the EC50 was above 25 µM.
With `O=C1C(S(=O)(=O)O)CCCN1O` (stereo not shown) [Compound 4, 1-Hydroxy-2-oxopiperidine-3-sulfonic acid], in data set [1] (setting [3]), the EC50 is above 25 µM.
Turning to `O=C1SCCCC1P(=O)(O)O` (stereo not shown) [Compound 7, (2-Oxotetrahydro-2H-thiopyran-3-yl)phosphonic acid], on NfENO, the “effect on NfENO” value is on record as “no effect”. Moreover, the EC50 in data set [1] (ATCC30107, 48 h) was above 25 µM.
As to `O=C1C(P(=O)(O)O)CCCN1CCO` (stereo not shown) [Compound 3, (1-(2-Hydroxyethyl)-2-oxopiperidin-3-yl)phosphonic acid], the concentration for a half-maximal effect (EC50) in data set [1] (ATCC30107, 48 h) was above 25 µM.
Regarding `O=C1NCCCC1P(=O)(O)O` (stereo not shown) [Compound 6, (2-Oxopiperidin-3-yl)phosphonic acid], the “effect on NfENO” value on NfENO is “no effect”. In addition, in data set [1] (ATCC30107, 48 h), the EC50 is above 25 µM.
As to `O=C1C(P(=O)(O)O)c2ccccc2CN1O` (stereo not shown) [Compound 2, (2-Hydroxy-3-oxo-1,2,3,4-tetrahydroisoquinolin-4-yl)phosphonic acid], the EC50 in data set [1] (setting [3]) is above 25 µM. For the same molecule, the “activity on N. fowleri growth” value in data set [1] (at higher concentrations than 25 μM (100 μM screen), 48 hours) was “modest activity”. Besides, the CC50 at 48 h in data set [2] (HEK-293 cells) was above 25 µM.

A word on the EC50: it is the concentration needed to bring the measured effect to its halfway point. As usually defined, the CC50 is the concentration giving 50% cytotoxicity.
